How the values were obtained:
Assay in all cases: relative viability (nuclei count vs DMSO), 5 days (fraction); higher = more cells survive
LCLC-103H = tested on: LCLC-103H
In short: (§1)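 Lung cancer cell lines, seeded in 1536-well plates, were treated the following day by pin tool with a single drug or with five library-drug doses (not always all listed) in √10 steps on top of a fixed anchor-drug dose. Cells were fixed and nuclei stained in one step after 5 days, and nuclei were counted. Relative viability is the nuclei count for treated wells divided by that for vehicle wells, reported as medians of duplicate plates.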

SK-MES-1 = tested on: SK-MES-1
In short: as §1

UMC-11 = tested on: UMC-11
In short: as §1

LCLC-97TM1 = tested on: LCLC-97TM1
In short: as §1

NCI-H1944 = tested on: NCI-H1944
In short: as §1

NCI-H2085 = tested on: NCI-H2085
In short: as §1

EPLC-272H = tested on: EPLC-272H
In short: as §1

NCI-H1355 = tested on: NCI-H1355
In short: as §1

NCI-H2023 = tested on: NCI-H2023
In short: as §1

NCI-H2405 = tested on: NCI-H2405
In short: as §1

HCC-827 = tested on: HCC-827
In short: as §1

HCC-44 = tested on: HCC-44
In short: as §1

NCI-H322M = tested on: NCI-H322M
In short: as §1

NCI-H1563 = tested on: NCI-H1563
In short: as §1

EMC-BAC-2 = tested on: EMC-BAC-2
In short: as §1

H3255 = tested on: H3255
In short: as §1

NCI-H2087 = tested on: NCI-H2087
In short: as §1

ChaGo-K-1 = tested on: ChaGo-K-1
In short: as §1

NCI-H520 = tested on: NCI-H520
In short: as §1

NCI-H650 = tested on: NCI-H650
In short: as §1

NCI-H1651 = tested on: NCI-H1651
In short: as §1

Question: Which results are given for `Oc1nc(-c2ccc(C(F)(F)F)cc2)nc2c1CSCC2` [XAV939] + C[C@@H](Oc1cc(-c2cnn(C3CCNCC3)c2)cnc1N)c1c(Cl)ccc(F)c1Cl [Crizotinib] (partner 1 µM)?
Answer: relative viability (LCLC-103H; first compound 0.08 µM): 1.07; relative viability (LCLC-103H; first compound 0.253 µM): 0.917; relative viability (LCLC-103H; first compound 0.8 µM): 0.984; relative viability (LCLC-103H; first compound 2.53 µM): 0.968; relative viability (SK-MES-1; first compound 0.08 µM): 1.02; relative viability (SK-MES-1; first compound 0.253 µM): 0.934; relative viability (SK-MES-1; first compound 0.8 µM): 0.882; relative viability (SK-MES-1; first compound 2.53 µM): 0.842; relative viability (UMC-11; first compound 0.08 µM): 0.777; relative viability (UMC-11; first compound 0.8 µM): 0.578; relative viability (UMC-11; first compound 2.53 µM): 0.414; relative viability (LCLC-97TM1; first compound 0.08 µM): 0.488; relative viability (LCLC-97TM1; first compound 0.253 µM): 0.344; relative viability (LCLC-97TM1; first compound 0.8 µM): 0.361; relative viability (LCLC-97TM1; first compound 2.53 µM): 0.305; relative viability (NCI-H1944; first compound 0.08 µM): 1.32; relative viability (NCI-H1944; first compound 0.253 µM): 1.08; relative viability (NCI-H1944; first compound 0.8 µM): 1.03; relative viability (NCI-H1944; first compound 2.53 µM): 0.959; relative viability (NCI-H2085; first compound 0.08 µM): 0.961; relative viability (NCI-H2085; first compound 0.253 µM): 0.826; relative viability (NCI-H2085; first compound 0.8 µM): 0.917; relative viability (NCI-H2085; first compound 2.53 µM): 0.734; relative viability (EPLC-272H; first compound 0.08 µM): 0.956; relative viability (EPLC-272H; first compound 0.253 µM): 0.96; relative viability (EPLC-272H; first compound 0.8 µM): 0.995; relative viability (EPLC-272H; first compound 2.53 µM): 0.908; relative viability (NCI-H1355; first compound 0.08 µM): 1.05; relative viability (NCI-H1355; first compound 0.253 µM): 0.9; relative viability (NCI-H1355; first compound 0.8 µM): 0.828; relative viability (NCI-H1355; first compound 2.53 µM): 0.725; relative viability (NCI-H2023; first compound 0.08 µM): 0.598; relative viability (NCI-H2023; first compound 0.253 µM): 0.581; relative viability (NCI-H2023; first compound 0.8 µM): 0.468; relative viability (NCI-H2023; first compound 2.53 µM): 0.43; relative viability (NCI-H2405; first compound 0.08 µM): 0.906; relative viability (NCI-H2405; first compound 0.253 µM): 0.816; relative viability (NCI-H2405; first compound 0.8 µM): 0.808; relative viability (NCI-H2405; first compound 2.53 µM): 0.775; relative viability (HCC-827; first compound 0.08 µM): 0.897; relative viability (HCC-827; first compound 0.253 µM): 0.818; relative viability (HCC-827; first compound 0.8 µM): 0.887; relative viability (HCC-827; first compound 2.53 µM): 0.949; relative viability (HCC-44; first compound 0.08 µM): 0.785; relative viability (HCC-44; first compound 0.253 µM): 0.796; relative viability (HCC-44; first compound 0.8 µM): 0.79; relative viability (HCC-44; first compound 2.53 µM): 0.75; relative viability (NCI-H322M; first compound 0.08 µM): 1.03; relative viability (NCI-H322M; first compound 0.253 µM): 0.83; relative viability (NCI-H322M; first compound 0.8 µM): 0.911; relative viability (NCI-H322M; first compound 2.53 µM): 0.547; relative viability (NCI-H1563; first compound 0.08 µM): 0.834; relative viability (NCI-H1563; first compound 0.253 µM): 0.846; relative viability (NCI-H1563; first compound 0.8 µM): 0.789; relative viability (NCI-H1563; first compound 2.53 µM): 0.697; relative viability (EMC-BAC-2; first compound 0.08 µM): 0.821; relative viability (EMC-BAC-2; first compound 0.253 µM): 0.63; relative viability (EMC-BAC-2; first compound 0.8 µM): 0.623; relative viability (EMC-BAC-2; first compound 2.53 µM): 0.438; relative viability (H3255; first compound 0.08 µM): 0.942; relative viability (H3255; first compound 0.253 µM): 0.873; relative viability (H3255; first compound 0.8 µM): 0.725; relative viability (H3255; first compound 2.53 µM): 0.7; relative viability (NCI-H2087; first compound 0.08 µM): 0.879; relative viability (NCI-H2087; first compound 0.253 µM): 0.998; relative viability (NCI-H2087; first compound 0.8 µM): 0.715; relative viability (NCI-H2087; first compound 2.53 µM): 0.797; relative viability (ChaGo-K-1; first compound 0.08 µM): 1.28; relative viability (ChaGo-K-1; first compound 0.253 µM): 1.16; relative viability (ChaGo-K-1; first compound 0.8 µM): 1.07; relative viability (ChaGo-K-1; first compound 2.53 µM): 0.883; relative viability (NCI-H520; first compound 0.08 µM): 0.778; relative viability (NCI-H520; first compound 0.253 µM): 0.665; relative viability (NCI-H520; first compound 0.8 µM): 0.668; relative viability (NCI-H520; first compound 2.53 µM): 0.68; relative viability (NCI-H650; first compound 0.08 µM): 1.01; relative viability (NCI-H650; first compound 0.253 µM): 0.945; relative viability (NCI-H650; first compound 0.8 µM): 0.736; relative viability (NCI-H650; first compound 2.53 µM): 0.545; relative viability (NCI-H1651; first compound 0.08 µM): 0.988; relative viability (NCI-H1651; first compound 0.253 µM): 0.798; relative viability (NCI-H1651; first compound 0.8 µM): 0.857; relative viability (NCI-H1651; first compound 2.53 µM): 0.856

Reference: the supplement of paper PMC10307832
